According to ChEMBL document CHEMBL3507680, “University of Dundee, Gates Library screen for HepG2 cell viability”:

Experiment: Human HepG2 cell viability assay in 384 well format
Format: toxicity, cell-based
Parameters: dose 125 nL, time 70.5 hour; concentration not given beside the values
Conditions: HepG2 cells, read-out: Inhibition
`CCc1cc(NCCS(=O)(=O)N(C)C)nc(N2CCOCC2)n1` showed a cytotoxicity at 70.5 h of -13.2%. `CCC(OC)C(=O)NCC1CCN(c2cnn(C)c(=O)c2)CC1` (centres undefined) showed a cytotoxicity at 70.5 h of -3.42%. Work on `OCC1(O)CCCN(Cc2noc(-c3ccccc3)n2)C1` (centres undefined) yielded a cytotoxicity at 70.5 h of -10.2%. `CCOCCn1nc(C)cc1C(=O)N1CC[C@](O)(CC)[C@H](O)C1` gave a cytotoxicity at 70.5 h of 3.37%. With `CCCC(C)NC1CCN(c2ccc(-n3ccnc3C)cc2)CC1` (centres undefined) the cytotoxicity at 70.5 h was -2.41%. `CCN1CCC(CNC(=O)C(c2ccc(F)cc2)N(C)C)(N(C)C)CC1` (centres undefined) showed a cytotoxicity at 70.5 h of -6.97%. Work on `CCN(CC)CCC(=O)NCc1cc2n(n1)CCN(C(=O)N(C)C)C2` yielded a cytotoxicity at 70.5 h of -11.8%. For `CCC[C@H]1CN(C2CCOCC2)C[C@@H]1NC(=O)CCc1cnccn1`, the cytotoxicity at 70.5 h was 6.02%. With `CO[C@H]1CN(C(C)C)C[C@@H]1NC(=O)Nc1ccc2oc(C)cc2c1` the cytotoxicity at 70.5 h was 26.1%. For `O=C(c1ccnc(CC2COc3ccccc3C2)c1)N1CCCC1` (centres undefined), the cytotoxicity at 70.5 h was -23.5%. In the case of `CCN1CCCC(CN2CCn3nc(CNC(=O)N(C)C)cc3C2)C1` (centres undefined), the cytotoxicity at 70.5 h is reported as -8.51%. In the case of `CN1CC2(CCCN(C(=O)c3cnc4ccc(F)cc4c3O)C2)OC1=O` (centres undefined), the cytotoxicity at 70.5 h is reported as -6.43%. In the case of `Cc1nccn1-c1ccc(NC(=O)C2CCCN2CC2CC2)cc1` (centres undefined), the cytotoxicity at 70.5 h is reported as -1.14%. In the case of `Cc1c(NC(=O)N(C)CCCc2cnn(C)c2)cnn1C`, the cytotoxicity at 70.5 h is reported as -12.2%. In the case of `CN1CCCN(C[C@@H]2CN(c3nc(C(N)=O)cs3)C[C@@H]2CO)CC1`, the cytotoxicity at 70.5 h is reported as 4.88%. `Cc1cc(N2CCCN(c3nc(C)nc(C)c3C)CC2)ccn1` showed a cytotoxicity at 70.5 h of -11%. Work on `CS(=O)(=O)N1CCC[C@H]1c1ncnn1-c1ccc2c(c1)OCO2` yielded a cytotoxicity at 70.5 h of -1.95%. For `CCCc1ccc(C(=O)N2CCc3c(nc(N(C)C)[nH]c3=O)C2)cc1`, the cytotoxicity at 70.5 h was -5.16%. Molecule `Cn1ccnc1CN1CCC(Cn2cc(-c3ccccc3)nn2)CC1` has a cytotoxicity at 70.5 h of 3.07%. Work on `COc1nccnc1N1CCC2(CC1)[C@H](O)C[C@@H]2OCCN(C)C` yielded a cytotoxicity at 70.5 h of -7.06%. With `CSc1nccc(N2CCCC(c3nccn3C(C)C)C2)n1` (centres undefined) the cytotoxicity at 70.5 h was 17.1%. With `CSCC(=O)N[C@H]1CN(Cc2c(C)noc2C)C[C@@H]1C(C)C` the cytotoxicity at 70.5 h was -0.898%. Work on `CCc1cc(NC2CCS(=O)(=O)CC2)nc(N2CCCCC2)n1` yielded a cytotoxicity at 70.5 h of 22.5%. Molecule `O=C(O)c1ccccc1C1CCN(C2Cc3ccccc3C2)C1` (centres undefined) has a cytotoxicity at 70.5 h of -1.24%. `Cc1ccc2nc(-c3cnc(N)nc3)c(C)c(C(=O)N(C)C)c2c1` showed a cytotoxicity at 70.5 h of 11.2%. Molecule `NC(=O)N1CCCC(c2nc(-c3cccnn3)no2)C1` (centres undefined) has a cytotoxicity at 70.5 h of -5.18%. `COCCN1C(=O)[C@H]2CC[C@@H]1CN(c1ncccn1)C2` showed a cytotoxicity at 70.5 h of 11.5%. Molecule `CN1CCCCCC1C(=O)N1CCCN(c2ccccc2)CC1` (centres undefined) has a cytotoxicity at 70.5 h of 4.68%. `COc1cccc(CCC2CCCN(C(=O)c3cnccn3)C2)c1` (centres undefined) gave a cytotoxicity at 70.5 h of -7.12%. In the case of `Cc1cc(C(=O)N2CCC3(CCNCC3)CC2)c2cccc(C)c2n1`, the cytotoxicity at 70.5 h is reported as 43.8%. Work on `CCc1nc(C)c([C@H]2CN(C)C[C@@H]2C(=O)Nc2ccccc2F)[nH]1` yielded a cytotoxicity at 70.5 h of -13.9%. `Cc1ccc(CCNc2ncnc3sc4c(c23)CCNC4)o1` gave a cytotoxicity at 70.5 h of -8.67%. In the case of `Cc1cc(-n2cccn2)ccc1CN1CCOCC(CN(C)C)C1` (centres undefined), the cytotoxicity at 70.5 h is reported as 27.5%. Work on `O=C(O)CSc1nnc(-c2ccn[nH]2)n1-c1ccccc1Cl` yielded a cytotoxicity at 70.5 h of -6.93%. Work on `Cn1ncc2c(N[C@H]3CC[C@@H](N)CC3)nc(C(C)(C)C)nc21` yielded a cytotoxicity at 70.5 h of 6.09%. Work on `CN(CC1(O)CCCN(Cc2cccc(F)c2F)C1=O)C1CCCCC1` (centres undefined) yielded a cytotoxicity at 70.5 h of -0.975%. For `O=C(c1ccc(O)cn1)N1CCOC(Cc2cccc(C(F)(F)F)c2)C1` (centres undefined), the cytotoxicity at 70.5 h was 22.6%. For `Cc1cc(N2CCCN(Cc3ccc(C)o3)CC2)ccn1`, the cytotoxicity at 70.5 h was -3.18%. `CN(C)CCNc1ccc(-c2nc(-c3ccccc3F)no2)cn1` showed a cytotoxicity at 70.5 h of 0.837%. `CN(C)C(C(=O)NCCn1cccc1)c1cccc(F)c1` (centres undefined) showed a cytotoxicity at 70.5 h of -4.48%. In the case of `COCCCN1CC2(CCN(C(=O)c3ncc(F)cc3F)CC2)CC1=O`, the cytotoxicity at 70.5 h is reported as -9.33%. `CC1(C)OC(=O)N(CC(=O)N2CCC(c3ccccc3Cl)C2)C1=O` (centres undefined) gave a cytotoxicity at 70.5 h of -6.23%. For `CCC[C@@H]1CN(c2ncnc3sccc23)C[C@H]1NS(C)(=O)=O`, the cytotoxicity at 70.5 h was -4.58%. For `COc1cccc([C@H]2CN(C(=O)c3cc(C)on3)C[C@@H]2N)c1`, the cytotoxicity at 70.5 h was -10.9%. `CSCc1ccc(N(C)CC2CCCN(C(C)C)C2)nc1` (centres undefined) gave a cytotoxicity at 70.5 h of -2.8%. Molecule `O=C(C1CC1)N1CCCN(c2ncnc3c2CCNCC3)CC1` has a cytotoxicity at 70.5 h of -6.41%. Work on `CC(C)[C@@H]1CN(C(=O)C2(c3ccccc3)CCN(C)CC2)C[C@H]1C(=O)O` yielded a cytotoxicity at 70.5 h of -5.2%. For `CCCSc1ccccc1NC(=O)N1CCN(C(=O)c2ccc[nH]2)CC1`, the cytotoxicity at 70.5 h was -1.4%. For `CCN(Cc1cnn(C)c1)C[C@H]1CC[C@@H](Cc2ccc(CO)cc2)O1`, the cytotoxicity at 70.5 h was -3.31%. `CN1C(=O)[C@H]2CC[C@@H]1CN(c1ncnc3ccsc13)C2` gave a cytotoxicity at 70.5 h of 11.8%. In the case of `Cn1ncc2c(NCCn3cccc3)nc(C3CCCC3)nc21`, the cytotoxicity at 70.5 h is reported as -5.71%. `COc1ccc(CC(=O)N2CCCC(Cn3cc(CN)nn3)C2)cc1` (centres undefined) showed a cytotoxicity at 70.5 h of -4.47%. `CCCN1CCCn2nc(CNC(=O)C3CCOC3)cc2C1` (centres undefined) showed a cytotoxicity at 70.5 h of -2.94%. With `COCCN(C)CC(=O)N1C[C@@H](C)[C@](O)(C(C)C)C1` the cytotoxicity at 70.5 h was -1.28%.
